Test results from PMC12631574, “Structure–activity relationships of hydrophobic small molecule irreversible inhibitors of tissue transglutaminase” (RSC Medicinal Chemistry, 2025).
Read-outs that look alike come from different tables or passages of the source.

Tests used:
[1] = biological target: T1, tissue transglutaminase (TG2), C-terminal His-tag TG2 (Homo sapiens, UniProt P21980); assay: continuous AL5 hydrolysis assay of irreversible TG2 inhibition (kobs vs [I]/α); assay type: biochemical
T1 construct: host or cells: Novagen Rosetta 2 (DE3) E. coli
T1 sequence (P21980 1-687): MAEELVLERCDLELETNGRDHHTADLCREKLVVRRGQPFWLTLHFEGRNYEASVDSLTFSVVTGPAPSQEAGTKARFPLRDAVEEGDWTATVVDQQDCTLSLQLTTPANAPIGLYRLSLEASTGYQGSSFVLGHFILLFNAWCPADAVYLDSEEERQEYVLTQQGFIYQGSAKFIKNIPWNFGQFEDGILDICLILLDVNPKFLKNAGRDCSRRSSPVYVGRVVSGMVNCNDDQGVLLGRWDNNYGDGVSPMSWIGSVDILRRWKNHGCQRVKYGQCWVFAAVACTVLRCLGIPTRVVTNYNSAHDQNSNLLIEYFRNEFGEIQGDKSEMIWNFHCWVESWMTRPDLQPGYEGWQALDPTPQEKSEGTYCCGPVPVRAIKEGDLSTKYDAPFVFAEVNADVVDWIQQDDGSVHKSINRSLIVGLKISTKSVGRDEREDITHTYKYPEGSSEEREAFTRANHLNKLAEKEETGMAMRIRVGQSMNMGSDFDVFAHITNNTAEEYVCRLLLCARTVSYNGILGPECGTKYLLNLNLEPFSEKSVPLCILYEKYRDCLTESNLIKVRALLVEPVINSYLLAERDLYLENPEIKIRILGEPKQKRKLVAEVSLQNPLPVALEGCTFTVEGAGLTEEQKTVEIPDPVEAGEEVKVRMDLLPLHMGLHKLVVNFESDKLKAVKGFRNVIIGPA

[2] = solubility in inhibition assay conditions and stock solutions; assay type: physicochemical; conditions: inhibition assay mixture, DMSO not above 6%
[3] = parallel artificial membrane permeability assay (PAMPA), at Pharmaron; assay type: in vitro ADME
[4] = stability in human hepatocytes, at Pharmaron; assay type: in vitro ADME; conditions: 20-donor, pooled; for hepatocyte CLint: read-out: In vitro CLint; for half-life: human, hepatocytes, read-out: In vitro t1/2
[5] = incubation in phosphate buffer with no hepatocytes present; assay type: physicochemical; conditions: phosphate buffer 0.1 M, pH = 8.0, no hepatocytes present
[6] = system: MDCK-MDR1 cells; design: method as in PMID 39708924; conditions: cited from earlier work
[7] = system: human hepatocytes; design: method as in PMID 36846370; conditions: cited from earlier work
[8] = inhibition efficiency, combined from kinact and KI
[9] = irreversible inhibition, AL5 100 μM, pH 6.9, 25 °C, triplicate
[10] = supplement, kinetics data and fitting
[11] = Pe in cm s^−1, lower value is more permeable, read-out: −log[Pe (cm s^−1)] (converted)

| SMILES | kinact [1] | KI (inactivation) [1, 9] | KI (inactivation) [1, 10] | kinact/KI [1, 10] | Papp [3, 11] | also measured |
| --- | --- | --- | --- | --- | --- | --- |
| C=CC(=O)NCC(=O)N1CCN(C(=O)c2ccc(-c3ccc(C)cc3)cc2)CC1 [Compound 21i, N-2-[4-[((4′-Methyl-4-biphenyl)carbonyl)-1-piperazinyl]-2-oxoethyl]propenamide] | – | – | – | – | – | kinact/KI [1, 8]: INS; KI [1, 9]: INS; kinact [1, 9]: INS; solubility in assay conditions [2]: too insoluble in assay conditions |
| C=CC(=O)NCC(=O)N1CCN(C(=O)c2cccc(Nc3ccccc3)c2)CC1 [Compound 22f, N-2-[4-[(((3-Phenylamino)phenyl)carbonyl)-1-piperazinyl]-2-oxoethyl]propenamide] | 0.0165 s⁻¹ | 31.7 ± 8.6 µM | 31.7 ± 8.6 µM | 31.2 ± 10.0 × 103 M-1min-1 | – | – |
| C=CC(=O)NCC(=O)N1CCN(C(=O)c2ccc(Cc3ccccc3)cc2)CC1 [Compound 22g, N-2-[4-[((4-Benzylphenyl)carbonyl)-1-piperazinyl]-2-oxoethyl]propenamide] | 0.0253 s⁻¹ | 58.1 ± 9.4 µM | 58.1 ± 9.4 µM | 26.1 ± 4.9 × 103 M-1min-1 | – | – |
| C=CC(=O)NCC(=O)N1CCN(C(=O)c2ccc(Oc3ccccc3)cc2)CC1 [Compound 22h, N-2-[4-[((4-Phenoxyphenyl)carbonyl)-1-piperazinyl]-2-oxoethyl]propenamide] | – | – | – | – | – | kinact/KI [1, 8]: INS.; KI [1, 9]: INS.; kinact [1, 9]: INS.; solubility in assay conditions [2]: too insoluble in assay conditions |
| C=CC(=O)NCC(=O)N1CCN(C(=O)c2ccc(Nc3ccccc3)cc2)CC1 [Compound 22i, N-2-[4-[(((4-Phenylamino)phenyl)carbonyl)-1-piperazinyl]-2-oxoethyl]propenamide] | 0.0255 s⁻¹ | 92.8 ± 43.3 µM | 92.8 ± 43.3 µM | 16.5 ± 9.4 × 103 M-1min-1 | – | – |
| C=CC(=O)NCC(=O)N1CCN(C(=O)C23CC4CC(CC(F)(C4)C2)C3)CC1 [Compound 25a, N-2-[4-[(3-Fluoroadamantanecarbonyl)-1-piperazinyl]-2-oxoethyl]propenamide] | – | 3.15 ± 0.33 µM | 3.15 ± 0.33 µM | – | – | – |
| C=CC(=O)NCC(=O)N1CCN(C(=O)C23CC4CC(CC(Cl)(C4)C2)C3)CC1 [Compound 25b, N-2-[4-[(3-Chloroadamantanecarbonyl)-1-piperazinyl]-2-oxoethyl]propenamide] | 0.0282 s⁻¹ | 1.79 ± 0.17 µM | 1.79 ± 0.17 µM | 941 ± 101 × 103 M-1min-1 | – | −log[Pe (cm s^−1)] ([3]; Pe in cm s^−1, lower value is more permeable): 5.85; Papp ([3]; read-out: Pe): 1.41 ×10⁻⁶ cm/s; hepatocyte CLint [4]: 6.91 µL/min/1e6 cells; half-life [4]: 200 min |
| C=CC(=O)NCC(=O)N1CCN(C(=O)C23CC4CC(CC(Br)(C4)C2)C3)CC1 [Compound 25c, N-2-[4-[(3-Bromoadamantanecarbonyl)-1-piperazinyl]-2-oxoethyl]propenamide] | 0.0119 s⁻¹ | 0.65 ± 0.08 µM | 0.648 ± 0.085 µM | 1104 ± 162 × 103 M-1min-1 | 2.19 ×10⁻⁶ cm/s | stability in phosphate buffer [5]: degrade after 24 hours |
| C=CC(=O)NCC(=O)N1CCN(C(=O)C23CC4CC(C2)CC(c2ccccc2)(C4)C3)CC1 [Compound 25d, N-2-[4-[(3-Phenyladamantanecarbonyl)-1-piperazinyl]-2-oxoethyl]propenamide] | 0.0112 s⁻¹ | 0.69 ± 0.07 µM | 0.691 ± 0.067 µM | 972 ± 103 × 103 M-1min-1 | 13.2 ×10⁻⁶ cm/s | hepatocyte CLint [4]: 29.3 µL/min/1e6 cells; half-life [4]: ~47 min |
| C=CC(=O)NCC(=O)N1CCN(C(=O)C23CC4CC(CC(I)(C4)C2)C3)CC1 [Compound 29, N-2-[4-[(3-Iodoadamantanecarbonyl)-1-piperazinyl]-2-oxoethyl]propenamide] | 0.0278 s⁻¹ | 1.4 ± 0.12 µM | 1.4 ± 0.12 µM | 1195 ± 112 × 103 M-1min-1 | 5.25 ×10⁻⁶ cm/s | hepatocyte CLint [4]: 69.2 µL/min/1e6 cells; half-life [4]: 20 min; stability in phosphate buffer [5]: degrade after 24 hours |
| C=CC(=O)NCC(=O)N1CCN(S(=O)(=O)C23CC4CC(CC(C4)C2)C3)CC1 [Compound 38, N-[2-(4-((Adamantan-1-yl)sulfonyl)piperazin-1-yl)-2-oxoethyl]propenamide] | 0.0162 s⁻¹ | 7.56 ± 1.87 µM | 7.56 ± 1.87 µM | 129 ± 36 × 103 M-1min-1 | – | – |
| C=CC(=O)NCC(=O)N1CCN(C(=O)C23CC4CC(CC(C4)C2)C3)CC1 [EB-2-16, reference compound] | 0.0233 s⁻¹ | 2.43 ± 0.19 µM | 2.43 ± 0.19 µM | 576 ± 50 × 103 M-1min-1 | 1.55 ×10⁻⁶ cm/s | susceptibility to P-glycoprotein-mediated efflux ([6]; MDCK-MDR1 cells): not susceptible to P-glycoprotein-mediated efflux; diffusion across the membrane of MDCK-MDR1 cells ([6]; bidirectional): excellent bidirectional diffusion; In vitro t1/2 [7]: >120 (ref. [27]) min |
